# Reference: patent publication US12077503B2, “Substituted cyclic amides and their use as herbicides” (FMC CORPORATION, priority 2015, dated 2024)
# Tests used:
# Assay type in all cases: in vivo
# corn (Zea mays) = test: Test A postemergence; details: Zea mays, post-emergence, 240 h, Postemergence, read-out: Corn plant response rating (0 to 100 scale)
# Outline: (§1)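 Compounds were formulated in a non-phytotoxic solvent mixture with surfactant and applied as a preemergence directed soil spray after seeding, or sprayed postemergence over plants 2 to 10 cm tall at the one- to two-leaf stage. Evaluation after about 10 d compared treated with untreated controls, using a scale from 0 (no effect) to 100 (complete control).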
# [1] = system: ragweed (common ragweed, Ambrosia elatior); test: Test A postemergence; details: Ambrosia artemisiifolia, post-emergence, 240 h, Postemergence, read-out: Ragweed plant response rating (0 to 100 scale)
# Outline: as §1
# [2] = system: Galium (catchweed bedstraw, Galium aparine); test: Test A postemergence; details: Galium, post-emergence, 240 h, Postemergence, read-out: Galium plant response rating (0 to 100 scale)
# Outline: as §1
# [3] = system: barnyardgrass (Echinochloa crus-galli); test: Test A postemergence; details: Echinochloa crus-galli, post-emergence, 240 h, Postemergence
# Outline: as §1
# [4] = system: pigweed (Amaranthus retroflexus); test: Test A postemergence; details: Amaranthus retroflexus, post-emergence, 240 h, Postemergence, read-out: Pigweed plant response rating (0 to 100 scale)
# Outline: as §1
# [5] = system: giant foxtail (Setaria faberii); test: Test A postemergence; details: Setaria faberi, post-emergence, 240 h, Postemergence, read-out: Foxtail, Giant plant response rating (0 to 100 scale)
# Outline: as §1
# [6] = system: ryegrass, Italian (Italian ryegrass, Lolium multiflorum); test: Test A postemergence; details: Lolium multiflorum, post-emergence, 240 h, Postemergence, read-out: Ryegrass, Italian plant response rating (0 to 100 scale)
# Outline: as §1
# Kochia (Kochia scoparia) [7] = test: Test A postemergence; details: Bassia scoparia, post-emergence, 240 h, Postemergence, read-out: Kochia plant response rating (0 to 100 scale)
# Outline: as §1
# [8] = system: wheat (Triticum aestivum); test: Test A postemergence; details: Triticum aestivum, post-emergence, 240 h, Postemergence, read-out: Wheat plant response rating (0 to 100 scale)
# Outline: as §1
# [9] = system: blackgrass (Alopecurus myosuroides); test: Test A postemergence; details: Alopecurus myosuroides, post-emergence, 240 h, Postemergence, read-out: Blackgrass plant response rating (0 to 100 scale)
# Outline: as §1
# [10] = system: ragweed (common ragweed, Ambrosia elatior); test: Test A preemergence; details: Ambrosia artemisiifolia, pre-emergence, 240 h, 0 to 100 scale where 0 is no effect and 100 is complete control, read-out: Ragweed plant response rating
# Outline: as §1
# [11] = system: barnyardgrass (Echinochloa crus-galli); test: Test A preemergence; details: Echinochloa crus-galli, pre-emergence, 240 h, 0 to 100 scale where 0 is no effect and 100 is complete control, read-out: Barnyardgrass plant response rating
# Outline: as §1
# [12] = system: pigweed (Amaranthus retroflexus); test: Test A preemergence; details: Amaranthus retroflexus, pre-emergence, 240 h, 0 to 100 scale where 0 is no effect and 100 is complete control, read-out: Pigweed plant response rating
# [13] = system: giant foxtail (Setaria faberii); test: Test A preemergence; details: Setaria faberi, pre-emergence, 240 h, 0 to 100 scale where 0 is no effect and 100 is complete control, read-out: Foxtail, Giant plant response rating
# Outline: as §1
# [14] = system: ryegrass, Italian (Italian ryegrass, Lolium multiflorum); test: Test A preemergence; details: Lolium multiflorum, pre-emergence, 240 h, 0 to 100 scale where 0 is no effect and 100 is complete control, read-out: Ryegrass, Italian plant response rating
# Outline: as §1
# Kochia (Kochia scoparia) [15] = test: Test A preemergence; details: Bassia scoparia, pre-emergence, 240 h, 0 to 100 scale where 0 is no effect and 100 is complete control, read-out: Kochia plant response rating
# Outline: as §1
# [16] = system: barnyardgrass (Echinochloa crus-galli); test: Test B flooded paddy test; details: Echinochloa crus-galli, 250 g ai/ha, Flood; 0 to 100 scale where 0 is no effect and 100 is complete control; read-out: Barnyardgrass plant response rating
# Outline: (§2)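 2-leaf plants; pots flooded 3 cm over soil; cpd added to paddy water; depth held; greenhouse 13–15 d; visual rating vs controls, 0 = no effect, 100 = complete control.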
# [17] = system: sedge, umbrella (small-flower umbrella sedge, Cyperus difformis); test: Test B flooded paddy test; details: Cyperus difformis, 250 g ai/ha, Flood; 0 to 100 scale where 0 is no effect and 100 is complete control; read-out: Sedge, Umbrella plant response rating
# Outline: as §2
# rice (Oryra sativa) = test: Test B flooded paddy test; details: Oryza sativa, 250 g ai/ha, Flood; 0 to 100 scale where 0 is no effect and 100 is complete control; read-out: Rice plant response rating
# Outline: as §2
# [18] = system: ducksalad (Heteranthera limosa); test: Test B flooded paddy test; details: Heteranthera limosa, 250 g ai/ha, Flood; 0 to 100 scale where 0 is no effect and 100 is complete control; read-out: Ducksalad plant response rating
# Outline: as §2
# [19] = 125 g ai/ha, visual rating about 10 d after treatment
# [20] = 31 g ai/ha, 0 is no effect, 100 is complete control
# [21] = 125 g ai/ha, preemergence, visual injury rating, approximately 10 d
structure (smiles),measurement,setting,value
CN1C[C@H](c2cccc(C#N)c2)[C@@H](C(=O)Nc2ccccc2F)C1=O [Compound 1285],plant injury at 125 g/ha,corn (Zea mays); [19],0%
same,plant injury at 31 g/ha,corn (Zea mays); [20],0%
same,pest or weed control at 125 g/ha,[1]; [19],0%
same,pest or weed control at 31 g/ha,[1]; [20],0%
same,pest or weed control at 125 g/ha,[2]; [19],30%
same,pest or weed control at 31 g/ha,[2]; [20],20%
same,pest or weed control at 125 g/ha,"[3]; 125 g ai/ha, visual rating about 10 d after treatment, read-out: Barnyardgrass plant response rating (0 to 100 scale, 0 no effect, 100 complete control)",80%
same,pest or weed control at 31 g/ha,"[3]; 31 g ai/ha, 0 is no effect, 100 is complete control, read-out: Barnyardgrass plant response rating (0 to 100 scale)",60%
same,pest or weed control at 125 g/ha,[4]; [19],20%
same,pest or weed control at 31 g/ha,[4]; [20],20%
same,pest or weed control at 125 g/ha,[5]; [19],70%
same,pest or weed control at 31 g/ha,[5]; [20],40%
same,pest or weed control at 125 g/ha,[6]; [19],0%
same,pest or weed control at 31 g/ha,[6]; [20],0%
same,pest or weed control at 125 g/ha,Kochia (Kochia scoparia) [7]; [19],0%
same,pest or weed control at 31 g/ha,Kochia (Kochia scoparia) [7]; [20],0%
same,plant injury at 125 g/ha,[8]; [19],0%
same,plant injury at 31 g/ha,[8]; [20],0%
same,pest or weed control at 125 g/ha,[9]; [19],0%
same,pest or weed control at 31 g/ha,[9]; [20],0%
same,pest or weed control at 31 g/ha,"[10]; 31 g ai/ha, Preemergence",30%
same,pest or weed control at 125 g/ha,[10]; [21],30%
same,pest or weed control at 31 g/ha,"[11]; 31 g ai/ha, Preemergence",40%
same,pest or weed control at 125 g/ha,[11]; [21],90%
same,pest or weed control at 31 g/ha,"[12]; 31 g ai/ha, Preemergence",0%
same,pest or weed control at 125 g/ha,[12]; [21],0%
same,pest or weed control at 31 g/ha,"[13]; 31 g ai/ha, Preemergence",90%
same,pest or weed control at 125 g/ha,[13]; [21],100%
same,pest or weed control at 31 g/ha,"[14]; 31 g ai/ha, Preemergence",0%
same,pest or weed control at 125 g/ha,[14]; [21],0%
same,pest or weed control at 31 g/ha,"Kochia (Kochia scoparia) [15]; 31 g ai/ha, Preemergence",20%
same,pest or weed control at 125 g/ha,Kochia (Kochia scoparia) [15]; [21],30%
same,pest or weed control at 250 g/ha,[16],60%
same,pest or weed control at 250 g/ha,[17],0%
same,pest or weed control at 250 g/ha,rice (Oryra sativa),25%
same,pest or weed control at 250 g/ha,[18],90%
